US11078188B2, “Dihydroquinoxaline bromodomain recognition protein inhibitor, preparation method and use thereof” (SHANGHAI INSTITUTE OF MATERIA MEDICA, CHINESE ACADEMY OF …, priority 2017, dated 2021)

How the values were obtained:
[1] = target: BRD4 (I) (Homo sapiens (Human), UniProt O60885); assay: Fluorescence anisotropy (FA) binding test on BRD4 (I); settings: BRD4 (I) 10 nM, fluorescent (+)-JQ1 substrate 5 nM, read-out: BRD4 (1) IC50
Method: The binding activity of the compound to BRD4 (I) was tested using a fluorescence anisotropy (FA) method. The principle of FA test is to calculate and analyze the fluorescence polarization values in the horizontal and vertical directions by detecting the change of molecular weight before and after the interaction of fluorescein-labeled small molecules with other molecules. If the equilibrium of the binding between the fluorescently labeled small molecule and macromolecule is established, it will move slowly when excited, and the measured fluorescence polarization value will increase. If the binding between the fluorescently labeled small molecule and the macromolecule is replaced by another ligand, its rotation or flipping speed in the free state will be faster, and the emitted light will be depolarized relative to the plane of the excitation light, and the measured polarized light value will decrease to calculate the fluorescence anisotropy of the sample.
Expression and purification of the BRD4(I) recognition domain: colonies of newly transformed plasmid DNA from E. coli BL21(DE3)-condon plus-RIL cells were cultivated in 50 mL of Terrific Broth medium containing 50 μg/mL kanamycin and 34 μg/mL chloramphenicol at 37° C. overnight (starting culture). The starting culture was then diluted 100-fold in 1 L of fresh TB medium and the cells were grown at 37° C. to an optical density of about 0.8 at OD600 and then the temperature was lowered to 16° C. When the system was equilibrated at 16° C., the optical density at OD600 was approximately 1.2, and protein expression was induced with 0.2 mmol of isopropyl-β-D-thiogalactopyranoside (IPTG) overnight at 16° C. Bacteria were harvested by centrifugation (4000×g, 20 minutes, 4° C.) and stored as a pellet at −80° C. The cells expressing His 6-tagged protein was resuspend in lysis buffer [50 mmol 4-hydroxyethylpiperazineethanesulfonic acid (HEPES), 25° C., pH 7.5, 500 mmol NaCl, 10 mmol imidazole, 5% glycerol and freshly added 0.5 mmol of tris(2-carboxyethyl)phosphine hydrochloride (TCEP) and 1 mmol of phenylmethanesulfonyl fluoride (PMSF)] and lysed at 4° C. using JN 3000PLUS high pressure homogenizer (JNBIO-Guangzhou, China). The lysate was clarified by centrifugation (12,000×g for 1 hour at 4° C.) and applied to a nickel-nitriloacetate agarose column. The column was washed once with 50 mL of wash buffer containing 30 mmol of imidazole. The protein was eluted using imidazole in an elution buffer in a stepwise elution (100-250 mmol imidazole in 50 mmol HEPES, 25° C., pH 7.5, 500 mmol NaCl, 5% glycerol). All fractions were collected and monitored by SDS-polyacrylamide gel electrophoresis (Bio-Rad Criterion TM Precast Gels, 4-12% Bis-Tris, 1.0 mm, from Bio-Rad, CA). After 1 mmol of dithiothreitol (DTT) was added, the eluted proteins were treated with tobacco […] virus (TEV) protease overnight at 4° C. to remove the His6 tag. The protein was concentrated and further purified by size exclusion chromatography on a Superdex 75 16/60 HiLoad gel filtration column. The samples were monitored by SDS-polyacrylamide gel electrophoresis and concentrated to 8-10 mg/mL with gel filtration buffer, 10 mmol Hepes pH 7.5, 500 mM NaCl, 1 mmol DTT, and used for protein binding assays and crystallization.
The fluorogenic substrate was (+)-JQ1 linked to a fluorescent molecule and the working concentration was 5 nM. BRD4 (I) protein had 10 nM of working concentration and the total reaction system was 40 μL. The buffer was 50 mM 4-hydroxyethylpiperazineethanesulfonic acid (HEPES) pH 7.4, 150 mM NaCl, 0.5 mM 3[(3-cholamidopropyl)dimethylammonio]propanesulfonate (CHAPS). […] The final concentration of DMSO was chosen to be 0.2%, taking into account the solubility of the compound and the effect of DMSO on the assay. All measurements were made under these conditions. […]

[2] = tested on: human myeloma cells MM.1S; assay: MM.1S cell viability, CCK-8 method; format: cell-based; settings: for IC50: 72 h treatment, CCK-8; for inhibitory activity against the MM.1S cell line (in words): compared with positive (+)-JQ1
Method: The MM.1S cell line was tested for cell viability. The test methods were as follows: human myeloma cells MM.1S were treated with compound for 72 h, and the proliferation inhibition effect and degree of the compound were detected by CCK-8 method.

Row | Compound | IC50 [1] [nM] | further results
1 | Cc1ccc(-n2nc(C(=O)N3CCN(C(C)C)CC3)nc2-c2ccc3c(c2)N(C2CCCC2)[C@H](C)C(=O)N3C)cc1 [Example 15] | 4.2 | 
2 | Cc1ccc(-n2nc(C(=O)N3C4CCC3CN(C)C4)nc2-c2ccc3c(c2)N(C2CCCC2)[C@H](C)C(=O)N3C)cc1 [Example 18] | 6.5 | IC50 ([2]; Homo sapiens, MM1.S): 10.22 ± 0.02 nM; inhibitory activity against the MM.1S cell line (in words) [2]: better inhibitory activity against the MM.1S cell line than the positive (+)-JQ1
3 | Cc1ccc(-n2nc(CN3C[C@@H](C)N[C@@H](C)C3)nc2-c2ccc3c(c2)N(C2CCCC2)[C@H](C)C(=O)N3C)cc1 [Example 47] | 6.7 | 
4 | Cc1ccc(-n2nnnc2-c2ccc3c(c2)N(C2CCCC2)C(C)C(=O)N3C)cc1 (stereo not shown) [Example 4] | 18.4 | 
5 | CCN1CCN(C(=O)c2nc(-c3ccc4c(c3)N(C3CC3)C(C)C(=O)N4C)n(-c3ccc(C)cc3C)n2)CC1 (stereo not shown) [Example 35] | 14.5 | IC50 ([2]; Homo sapiens, MM1.S): 15.5 ± 7.42 nM; inhibitory activity against the MM.1S cell line (in words) [2]: better inhibitory activity against the MM.1S cell line than the positive (+)-JQ1
6 | Cc1ccc(-n2nc(C(=O)N3CCN(C)CC3)nc2-c2ccc3c(c2)N(C2CC2)C(C)C(=O)N3C)c(C)c1 (stereo not shown) [Example 34] | 13.9 | IC50 ([2]; Homo sapiens, MM1.S): 9.11 ± 2.91 nM; inhibitory activity against the MM.1S cell line (in words) [2]: better inhibitory activity against the MM.1S cell line than the positive (+)-JQ1
7 | Cc1ccc(-n2nc(C(=O)N3C[C@@H](C)N[C@@H](C)C3)nc2-c2ccc3c(c2)N(C2COC2)[C@H](C)C(=O)N3C)cc1 [Example 38] | 13.6 | 
8 | Cc1ccc(-n2nc(C(=O)N3CC4CCC(C3)N4C)cc2-c2ccc3c(c2)N(C2CCCC2)[C@H](C)C(=O)N3C)cc1 [Example 29] | 7.7 | 
9 | (+)-JQ1 [reference compound] |  | IC50 [2]: 19.3 ± 9.3 nM
10 | Cc1ccc(-n2nc(C(=O)N3CCCN(C)CC3)nc2-c2ccc3c(c2)N(C2CCCC2)[C@H](C)C(=O)N3C)cc1 [Example 19] | 4.6 | 
11 | Cc1ccc(-n2nc(C(=O)N3CCN4CCCC4C3)nc2-c2ccc3c(c2)N(C2CCCC2)[C@H](C)C(=O)N3C)cc1 (stereo partly shown) [Example 22] | 8.1 | 
12 | Cc1ccc(-n2nc(C(=O)N3CCC4(CCCC4)CC3)nc2-c2ccc3c(c2)N(C2CCCC2)[C@H](C)C(=O)N3C)cc1 [Example 20] | 25.4 | 
13 | Cc1ccc(-n2nc(C(=O)N3C[C@@H](NC(=O)OC(C)(C)C)C4(CC4)C3)nc2-c2ccc3c(c2)N(C2CCCC2)[C@H](C)C(=O)N3C)cc1 [Example 23] | 9.2 | 
14 | Cc1ccc(-n2nc(C(=O)N3CCN(C4CC4)CC3)nc2-c2ccc3c(c2)N(C2CCCC2)[C@H](C)C(=O)N3C)cc1 [Example 11] | 5.08 | 
15 | Cc1ccc(-n2c(C)nnc2-c2ccc3c(c2)N(C2CCCC2)[C@H](C)C(=O)N3C)cc1 [Example 32] | 5.1 | 
16 | C[C@@H]1C(=O)N(C)c2ccc(-c3nc(C(=O)N4CCN(C)CC4)nn3-c3ccccc3)cc2N1C1CCCC1 [Example 7] | 7.6 | 
17 | Cc1ccc(-n2nc(C(=O)N3C[C@@H](N)C4(CC4)C3)nc2-c2ccc3c(c2)N(C2CCCC2)[C@H](C)C(=O)N3C)cc1 [Example 24] | 5.3 | 
18 | Cc1ccc(-n2nc(C(=O)N3C[C@@H](C)N[C@@H](C)C3)nc2-c2ccc3c(c2)N(C2CCOCC2)[C@H](C)C(=O)N3C)cc1 [Example 39] | 10.3 | 
19 | Cc1ccc(-n2nc(C(=O)N3C[C@@H](C)N[C@@H](C)C3)nc2-c2ccc3c(c2)N(C2CCC(F)(F)CC2)[C@H](C)C(=O)N3C)cc1 [Example 40] | 16 | 
20 | Cc1ccc(-n2nc(C(=O)N3CCC4(CCOC4)CC3)nc2-c2ccc3c(c2)N(C2CCCC2)[C@H](C)C(=O)N3C)cc1 [Example 21] | 7.1 | 
21 | Cc1ccc(-n2nc(C(=O)N3C4CCC3CN(C)C4)cc2-c2ccc3c(c2)N(C2CCCC2)[C@H](C)C(=O)N3C)cc1 [Example 28] | 6.7 | 
22 | Cc1ccc(-n2nc(C(=O)N3C[C@@H](C)N[C@@H](C)C3)nc2-c2ccc3c(c2)N(C2CC(F)(F)C2)[C@H](C)C(=O)N3C)cc1 [Example 41] | 20.1 | 
